# Active and inactive are the calls of the source.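 Rule for the calls: active = lipid-stain IC50 at or below a set limit, with nuclear-stain toxicity IC50 at least five times higher; inactive = the rest.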
# How the values were obtained:
# DAPI = assay: triacylglycerol accumulation inhibitor potency, dose response, cell-based, panel, Nile Red and DAPI fluorescence, H9c2 (AID 651630); conditions: H9c2 cells, DAPI nuclear fluorescence (cytotoxicity counter-readout), oleic acid;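 note: cells exposed to compound overnight before fixation and staining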
# TAG = assay: as above; conditions: H9c2 cells, Nile Red TAG fluorescence, oleic acid
SMILES,IC50 cytotoxicity (DAPI nuclear signal decrease) (DAPI; mean of runs),IC50 cytotoxicity (DAPI nuclear signal decrease) (DAPI; run 1),IC50 cytotoxicity (DAPI nuclear signal decrease) (DAPI; run 2),IC50 (TAG; mean of runs),IC50 (TAG; run 1),IC50 (TAG; run 2)
COc1cc(OC)c2c(-c3ccccc3)cc(=O)oc2c1C(CCN1CCN(c2ccccc2)CC1)c1ccc(N(C)C)cc1 (stereo not drawn),> 25 µM (inactive),> 25 µM,> 25 µM,6.35 µM,6.75 µM,5.95 µM
CC(C)c1ccc(NC(=O)Nc2nc(C(N)C3CCCCC3)cs2)cc1 (stereo not drawn),17.3 µM (inactive),16 µM,18.6 µM,8.38 µM,8.24 µM,8.53 µM
COc1ccc(Nc2oc(-c3ccc(Cl)cc3)nc2C#N)cc1,> 25 µM (inactive),> 25 µM,> 25 µM,–,17.9 µM,> 25 µM
O[C@H]1CN(CC2CCCCC2)[C@@H](c2ccc(Cl)cc2)C[C@@H]1n1cc(-c2ccc(F)cc2)nn1,> 25 µM (inactive),> 25 µM,> 25 µM,–,18.5 µM,> 25 µM
C=CCC[C@@H](Cc1ccc(F)cc1)C(=O)OC[C@@H](Cc1c[nH]c2ccccc12)NC(=O)[C@@H](CC=C)CC(=O)N(CCO)Cc1ccccc1,> 25 µM (inactive),> 25 µM,> 25 µM,8.26 µM,7.1 µM,9.42 µM
O=c1c2c3nc4ccccc4nc3n(/N=C/c3ccccn3)c2ncn1-c1ccccc1,–,> 25 µM,> 25 µM,2.48 µM,3.37 µM,1.59 µM
CC(C)(C)OC(=O)[C@H](Cc1ccccc1)NC(=O)c1ncn2c1c(=O)[nH]c1ccc(Br)cc12,> 25 µM (inactive),> 25 µM,> 25 µM,11.8 µM,12 µM,11.6 µM
C[C@H](O)[C@@H]1CN2CCc3c([nH]c4ccc(-c5ccc6c(c5)OCO6)cc34)[C@@H]2C[C@@H]1N(C)C(=O)Nc1ccc(F)cc1,> 25 µM (inactive),> 25 µM,> 25 µM,11 µM,7.28 µM,14.7 µM
Cn1nc(-c2ccc(Cl)cc2)c2cc(C(=O)NC3CC3)sc21,> 25 µM (inactive),> 25 µM,> 25 µM,10.8 µM,13 µM,8.58 µM
COCCCn1c(N)c(C(=O)Nc2ccccc2)c2nc3ccccc3nc21,> 25 µM (inactive),> 25 µM,> 25 µM,13.5 µM,11.8 µM,15.2 µM
Cc1ccc(-c2nn(-c3ccccc3)cc2CSC(=N)N)cc1,21 µM,21.1 µM,20.9 µM,3.82 µM,3.92 µM,3.73 µM
COc1ccccc1NC(=O)N1CCC(c2nc3cc(C)c(C)cc3[nH]2)CC1,> 25 µM (inactive),> 25 µM,> 25 µM,> 25 µM (inactive),> 25 µM,> 25 µM
CSc1nc(N(C)NC(=O)c2ccc(Cl)cc2)c2ccccc2n1,> 25 µM (inactive),> 25 µM,> 25 µM,> 25 µM (inactive),> 25 µM,> 25 µM
N#C/C(=C\c1cc([N+](=O)[O-])c(N2CCCCC2)cc1N1CCCCC1)c1nn(-c2ccccc2)c(N)c1C#N,> 25 µM (inactive),> 25 µM,> 25 µM,> 25 µM (inactive),> 25 µM,> 25 µM
O=C(Nc1cccc(-c2csc(Nc3ccc(Cl)cc3)n2)c1)c1cccc(C(F)(F)F)c1,> 25 µM (inactive),> 25 µM,> 25 µM,15.2 µM (inactive),13.6 µM,16.7 µM
Oc1ccc(C[C@H]2CNC(=S)N2CC2CCCN2C[C@H](Cc2ccc(O)cc2)N2C[C@H](Cc3ccc(O)cc3)N(CC3CCCCCC3)C2=S)cc1 (stereo partly drawn),> 25 µM (inactive),> 25 µM,> 25 µM,8.6 µM,7.31 µM,9.89 µM

# From PubChem BioAssay AID651630 (Sanford-Burnham Center for Chemical Genomics, 2012)
